pIC50: −log10 of the molar value.
Columns and labels:
human full-length MKNK1 [1] = target: T1, human full-length MKNK1 (Homo sapiens (Human), UniProt Q9BUB5, T344D); experiment: MKNK1 kinase high ATP assay (TR-FRET); format: biochemical; conditions: 2 mM ATP, 15 min preincubation
Protocol: MKNK1 Kinase High ATP Assay
MKNK1-inhibitory activity at high ATP of compounds of the present invention after their preincubation with MKNK1 was quantified employing the TR-FRET-based MKNK1 high ATP assay as described in the following paragraphs.
As substrate for the kinase reaction the biotinylated peptide biotin-Ahx-[…] (C-terminus in amide form) was used, which can be purchased e.g. from the company Biosyntan (Berlin-Buch, Germany).
(§1) For the assay 50 nL of a 100fold concentrated solution of the test compound in DMSO was pipetted into a black low volume 384well microtiter plate (Greiner Bio-One, Frickenhausen, Germany), 2 μL of a solution of MKNK1 in aqueous assay buffer [50 mM HEPES pH 7.5, 5 mM magnesium chloride, 1.0 mM dithiothreitol, 0.005% (v/v) Nonidet-P40 (Sigma)] was added and the mixture was incubated for 15 min at 22° C. to allow pre-binding of the test compounds to the enzyme before the start of the kinase reaction. Then the kinase reaction was started by the addition of 3 μL of a solution of adenosine-tri-phosphate (ATP, 3.3 mM=>final conc. in the 5 μL assay volume is 2 mM) and substrate (0.1 μM=>final conc. in the 5 μL assay volume is 0.06 μM) in assay buffer and the resulting mixture was incubated for a reaction time of 30 min at 22° C. The concentration of MKNK1 was adjusted depending of the activity of the enzyme lot and was chosen appropriate to have the assay in the linear range, typical concentrations were in the range of 0.003 μg/mL. The reaction was stopped by the addition of 5 μL of a solution of TR-FRET detection reagents (5 nM streptavidine-XL665 [Cisbio Bioassays, Codolet, France] and 1 nM anti-ribosomal protein S6 (pSer236)-antibody from Invitrogen [#44921G] and 1 nM LANCE EU-W1024 labeled ProteinG [Perkin-Elmer, product no. AD0071]) in an aqueous EDTA-solution (100 mM EDTA, 0.1% (w/v) bovine serum albumin in 50 mM HEPES pH 7.5).
(§2) The resulting mixture was incubated for 1 h at 22° C. to allow the formation of complex between the phosphorylated biotinylated peptide and the detection reagents. Subsequently the amount of phosphorylated substrate was evaluated by measurement of the resonance energy transfer from the Eu-chelate to the streptavidine-XL. Therefore, the fluorescence emissions at 620 nm and 665 nm after excitation at 350 nm were measured in a TR-FRET reader, e.g. a Rubystar (BMG Labtechnologies, Offenburg, Germany) or a Viewlux (Perkin-Elmer). The ratio of the emissions at 665 nm and at 622 nm was taken as the measure for the amount of phosphorylated substrate.

human full-length MKNK1 [2] = target: T1, human full-length MKNK1; experiment: MKNK1 kinase assay (TR-FRET); format: biochemical; conditions: 10 μM ATP, 15 min preincubation
Protocol: MKNK1-inhibitory activity of compounds of the present invention was quantified employing the MKNK1 TR-FRET assay as described in the following paragraphs.
As substrate for the kinase reaction the biotinylated peptide biotin-Ahx-[…] (C-terminus in amide form) was used which can be purchased e.g. form the company Biosyntan (Berlin-Buch, Germany).
as §1, with “16.7 μM=>final” for “3.3 mM=>final”, “10 μM)” for “2 mM)”, “45” for “30”, “0.05” for “0.003”
as §2

T1 sequence (Q9BUB5 other isoform, or with tags, fused parts or gaps T344D): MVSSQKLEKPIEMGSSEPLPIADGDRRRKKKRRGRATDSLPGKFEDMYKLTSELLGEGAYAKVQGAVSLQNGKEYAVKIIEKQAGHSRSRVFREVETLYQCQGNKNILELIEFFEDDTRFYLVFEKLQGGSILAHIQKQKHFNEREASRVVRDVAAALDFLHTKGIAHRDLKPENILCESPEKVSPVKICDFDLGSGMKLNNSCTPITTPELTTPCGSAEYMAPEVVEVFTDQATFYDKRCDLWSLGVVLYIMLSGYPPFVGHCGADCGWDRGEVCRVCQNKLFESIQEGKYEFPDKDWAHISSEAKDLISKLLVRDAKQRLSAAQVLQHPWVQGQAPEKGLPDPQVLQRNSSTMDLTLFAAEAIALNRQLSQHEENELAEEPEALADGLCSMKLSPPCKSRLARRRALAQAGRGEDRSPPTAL

| Compound | pIC50 (human full-length MKNK1 [1]) | pIC50 (human full-length MKNK1 [2]) |
| --- | --- | --- |
| CNC(C)COc1ccc2ncc(-c3cc4ccccc4o3)n2n1 (stereo not shown) [Example 24, 1-{[3-(1-Benzofuran-2-yl)imidazo[1,2-b]pyridazin-6-yl]oxy}-N-methylpropan-2-amine] | 7.26 | – |
| CC(C)(C)CNCC(Oc1ccc2ncc(-c3cc4ccccc4o3)n2n1)c1ccccc1 (stereo not shown) [Example 30, N-(2-{[3-(1-Benzofuran-2-yl)imidazo[1,2-b]pyridazin-6-yl]oxy}-2-phenylethyl)-2,2-dimethylpropan-1-amine] | 6.62 | 6.64 |
| CNCC(C)Oc1ccc2ncc(-c3cc4ccccc4o3)n2n1 (stereo not shown) [Example 26, 2-{[3-(1-Benzofuran-2-yl)imidazo[1,2-b]pyridazin-6-yl]oxy}-N-methylpropan-1-amine] | 7.03 | – |
| CNCC(Oc1ccc2ncc(-c3cc4ccccc4o3)n2n1)c1ccccc1 (single isomer, unassigned; (-)) [Example 29, (-)-2-{[3-(1-Benzofuran-2-yl)imidazo[1,2-b]pyridazin-6-yl]oxy}-N-methyl-2-phenylethanamine] | 6.91 | 7.01 |
| c1ccc2oc(-c3cnc4ccc(O[C@@H]5CCNC5)nn34)cc2c1 [Example 31, 3-(1-Benzofuran-2-yl)-6-[(3R)-pyrrolidin-3-yloxy]imidazo[1,2-b]pyridazine] | 7.31 | 7.66 |
| c1ccc2oc(-c3cnc4ccc(OCC5CNC5)nn34)cc2c1 [Example 14, 6-(Azetidin-3-ylmethoxy)-3-(1-benzofuran-2-yl)imidazo[1,2-b]pyridazine] | 7.57 | – |
| CC(C)NCCCOc1ccc2ncc(-c3cc4ccccc4o3)n2n1 [Example 9, 3-{[3-(1-Benzofuran-2-yl)imidazo[1,2-b]pyridazin-6-yl]oxy}-N-(propan-2-yl)propan-1-amine] | 7.70 | 8.15 |
| c1ccc2oc(-c3cnc4ccc(OCCNC5CC5)nn34)cc2c1 [Example 17, N-(2-{[3-(1-Benzofuran-2-yl)imidazo[1,2-b]pyridazin-6-yl]oxy}ethyl)cyclopropanamine] | 7.44 | 8.10 |
| CC(C)NCC(Oc1ccc2ncc(-c3cc4ccccc4o3)n2n1)c1ccccc1 (stereo not shown) [Example 27, Formic acid-N-(2-{[3-(1-benzofuran-2-yl)imidazo[1,2-b]pyridazin-6-yl]oxy}-2-phenylethyl)propan-2-amine (1:1)] | 7.12 | 7.44 |
| CC(C)(C)CNCCCOc1ccc2ncc(-c3cc4ccccc4o3)n2n1 [Example 4, N-(3-{[3-(1-Benzofuran-2-yl)imidazo[1,2-b]pyridazin-6-yl]oxy}propyl)-2,2-dimethylpropan-1-amine] | 7.89 | 8.40 |
| CC(C)(C)NCCOc1ccc2ncc(-c3cc4ccccc4o3)n2n1 [Example 18, N-(2-{[3-(1-Benzofuran-2-yl)imidazo[1,2-b]pyridazin-6-yl]oxy}ethyl)-2-methylpropan-2-amine] | 7.43 | 7.62 |
| c1ccc2oc(-c3cnc4ccc(OCCNCC5CC5)nn34)cc2c1 [Example 6, 2-{[3-(1-Benzofuran-2-yl)imidazo[1,2-b]pyridazin-6-yl]oxy}-N-(cyclopropylmethyl)ethanamine] | 7.74 | 8.15 |
| Clc1ccc2oc(-c3cnc4ccc(OCC[C@@H]5CCCN5)nn34)cc2c1 [Example 25, 3-(5-Chloro-1-benzofuran-2-yl)-6-{2-[(2S)-pyrrolidin-2-yl]ethoxy}imidazo[1,2-b]pyridazine] | 7.04 | 7.41 |
| CC(C)(C)CNCCOc1ccc2ncc(-c3cc4ccccc4o3)n2n1 [Example 12, N-(2-{[3-(1-Benzofuran-2-yl)imidazo[1,2-b]pyridazin-6-yl]oxy}ethyl)-2,2-dimethylpropan-1-amine] | 7.60 | 7.96 |
| c1ccc2oc(-c3cnc4ccc(OCC[C@@H]5CCCN5)nn34)cc2c1 [Example 15, 3-(1-Benzofuran-2-yl)-6-{2-[(2S)-pyrrolidin-2-yl]ethoxy}imidazo[1,2-b]pyridazine] | 7.52 | 7.92 |
| Clc1ccc2oc(-c3cnc4ccc(OC[C@H]5CNCCO5)nn34)cc2c1 [Example 20, 3-(5-Chloro-1-benzofuran-2-yl)-6-[(2R)-morpholin-2-ylmethoxy]imidazo[1,2-b]pyridazine] | 7.39 | – |
| COc1cccc2oc(-c3cnc4ccc(OC[C@H]5CNCCO5)nn34)cc12 [Example 2, 3-(4-Methoxy-1-benzofuran-2-yl)-6-[(2R)-morpholin-2-ylmethoxy]imidazo[1,2-b]pyridazine] | 7.96 | – |
| Fc1cccc2oc(-c3cnc4ccc(OC[C@H]5CNCCO5)nn34)cc12 [Example 33, 3-(4-Fluoro-1-benzofuran-2-yl)-6-[(2R)-morpholin-2-ylmethoxy]imidazo[1,2-b]-pyridazine] | 7.82 | 8.00 |
